{
  "source": "paper PMC5469522",
  "experiment": "Non-covalent ring closure: intramolecular phenol OH...acceptor H-bond (folding of AD 2-mers; acceptor is phosphine oxide, pyridine or pyridine N-oxide). EMf = Kfold/K(A.D); Kfold inferred from NMR dilution Kobs(AD.AD) versus Kobs(AA.DD)",
  "settings": "the molecule shown is the open-chain precursor, toluene-d8 (C7-PO in CDCl3), 25.0 °C",
  "data": [
    {"smiles": "CCCCP(=O)(CCCC)c1cccc(C#Cc2cc(C#Cc3cccc(O)c3)cc(OCC[C@@H](C)CCC=C(C)C)c2)c1", "note": "[C7-PO (44), CDCl3]", "values": [
      {"measurement": "ring closure, effective molarity", "setting": "17-membered ring", "value": 0, "unit": "mM"}
    ]},
    {"smiles": "CCCCC(CC)COc1ccc(N(Cc2ccc(O)cc2)Cc2cc([N+](=O)[O-])ccc2OCC(CC)CCCC)cc1CN(Cc1ccncc1)c1ccc(OCC(CC)CCCC)c(C2OCCO2)c1", "note": "(stereo not shown) [C8-N (21)]", "values": [
      {"measurement": "ring closure, effective molarity", "setting": "18-membered ring", "value": 0, "unit": "mM"}
    ]},
    {"smiles": "CCCCC(CC)COc1ccc(N(Cc2ccc(O)cc2)Cc2cc([N+](=O)[O-])ccc2OCC(CC)CCCC)cc1CN(Cc1cc[n+]([O-])cc1)c1ccc(OCC(CC)CCCC)c(C2OCCO2)c1", "note": "(stereo not shown) [C8-NO (13)]", "values": [
      {"measurement": "ring closure, effective molarity", "setting": "19-membered ring", "value": 0, "unit": "mM"}
    ]},
    {"smiles": "CCCCC(CC)COc1ccc(N(Cc2ccc(O)cc2)Cc2cc([N+](=O)[O-])ccc2OCC(CC)CCCC)cc1CN(Cc1ccc(OCP(=O)(C(C)(C)C)C(C)(C)C)cc1)c1ccc(OCC(CC)CCCC)c(C2OCCO2)c1", "note": "(stereo not shown) [C8-PO (16)]", "values": [
      {"measurement": "ring closure, effective molarity", "setting": "22-membered ring", "value": 7, "unit": "mM"}
    ]},
    {"smiles": "CCCCP(=O)(CCCC)c1ccc(C[C@@H](CCSCC[C@H](CCSC(C)=O)Cc2ccc(O)cc2)CCSC(C)(C)C)cc1", "note": "[C9-PO (33)]", "values": [
      {"measurement": "ring closure, effective molarity", "setting": "21-membered ring", "value": 7, "unit": "mM"}
    ]},
    {"smiles": "CCCCC(CC)COc1cc(CN(Cc2ccccc2OC)c2ccc(O)cc2)cc(CN(Cc2ccccc2OC)c2ccc(OCP(=O)(C(C)(C)C)C(C)(C)C)cc2)c1", "note": "(stereo not shown) [N7-PO (29)]", "values": [
      {"measurement": "ring closure, effective molarity", "setting": "21-membered ring", "value": 15, "unit": "mM"}
    ]},
    {"smiles": "CCCCC(CC)COc1cc(CN(Cc2ccccc2OC)c2ccc(OCP(=O)(C(C)(C)C)C(C)(C)C)cc2)c(OCC(CC)CCCC)cc1CN(Cc1ccccc1OC)c1ccc(O)cc1", "note": "(stereo not shown) [N8-PO (26)]", "values": [
      {"measurement": "ring closure, effective molarity", "setting": "22-membered ring", "value": 3, "unit": "mM"}
    ]}
  ]
}
